# Assay results taken from patent publication US11896573B2, “Pharmaceutical compositions and pharmacokinetics of a gamma-hydroxybutyric acid derivative” (priority 2020, dated 2024).
# Read-outs that look alike come from different tables or passages of the source.
# Assay: Multiple ascending dose study, plasma pharmacokinetics of Compound (1) and GHB
# Assay type: in vivo, human
# Conditions: for AUC(0-inf) / AUC(0-t) / Cmax / half-life / Tmax: human, plasma, oral; for Tmax: read-out: Compound (1) plasma Tmax, Median
# Description: The plasma concentrations of Compound (1) and GHB in plasma in healthy human subjects were measured using liquid chromatography tandem mass-spectroscopy and evaluated using PHOENIX™ WINNONLIN® version 8.1 (Pharsight Corporation, USA) and MICROSOFT® EXCEL® (Microsoft Corporation, USA).
# All randomized subjects who received Compound (1), with available pharmacokinetic (PK) data and without relevant deviations interfering with the PK evaluations, were included. Subjects who received only placebo were excluded from the PK population. In addition, the PK population was used for the summaries and analyses of all PK data.
# A multiple ascending dose study was undertaken to evaluate the pharmacokinetics of multiple doses of Compound (1) in 3 cohorts of healthy subjects (with 8 subjects/cohort). Within each cohort, the subjects were randomized to receive Compound (1) or placebo at a ratio of 6:2 (active: placebo) for 7 days (or up to 9 days if the cohort included a titration period).
# After fasting for at least 3 hours following a standard meal, subjects were randomized on Day 1 and the first dose of study drug (either target dose or titration dose) was administered. The first cohort of subjects (Cohort 8) received the second dose administration at approximately four hours after receiving the first dose. The subsequent […] cohorts (Cohorts 9 and 10) received only one dose per day.
# For the first cohort (Cohort 8), the dose used was 6.0 g divided into two equal doses four hours apart for 7 days starting from Day 4 “Dose Day 1” to Day 10 “Dose Day 7”. Subsequent Cohorts 9, 10 received a single daily dose of 4.5 g and 6.0 g during the titration period (Day 1 for Cohort 9, Day 1 and Day 2 for Cohort 10, and after a titration period for 7 days starting from Day 4 “Dose Day 1” to Day 10 “Dose Day 7”. Cohort 11 was not conducted due to API availability.
# [1] = Cohort 10 (6.0 g/day in a single dose), Dosing Day 10
compound,measurement,setting,value
"CC(C)[C@H](N)C(=O)OCCCC(=O)O [Compound (1), 4-((L-valyl)oxy)butanoic acid]","Compound (1) plasma Tmax, Min","Cohort 10 (6.0 g/day in a single dose), Dosing Day 4",19.8 min
same,"Compound (1) CL/F, Max",[1],575 L/h
same,"Compound (1) CL/F, Mean",[1],395 L/h
same,"Compound (1) CL/F, Median",[1],354 L/h
same,"Compound (1) CL/F, Min",[1],284 L/h
same,"Compound (1) plasma AUC0-inf, Max",[1],21100 ng·h/mL
same,"Compound (1) plasma AUC0-inf, Min",[1],10400 ng·h/mL
same,"Compound (1) plasma AUC0-tlast, Max",[1],21100 ng·h/mL
same,"Compound (1) plasma AUC0-tlast, Min",[1],10400 ng·h/mL
same,"Compound (1) plasma Cmax, Max",[1],24500 ng/mL
same,"Compound (1) plasma Cmax, Min",[1],11700 ng/mL
same,"Compound (1) plasma T1/2, Max",[1],31.2 min
same,"Compound (1) plasma T1/2, Min",[1],17.4 min
same,AUC(0-inf),"4.5 g/day, Cohort 9 (4.5 g/day in a single dose), Dosing Day 4, read-out: Compound (1) plasma AUC0-inf, Mean",12000 ng·h/mL
same,AUC(0-inf),"4.5 g/day, Cohort 9 (4.5 g/day in a single dose), Dosing Day 4, read-out: Compound (1) plasma AUC0-inf, Median",11800 ng·h/mL
same,AUC(0-t),"4.5 g/day, Cohort 9 (4.5 g/day in a single dose), Dosing Day 4, read-out: Compound (1) plasma AUC0-tlast, Mean",11300 ng·h/mL
same,AUC(0-t),"4.5 g/day, Cohort 9 (4.5 g/day in a single dose), Dosing Day 4, read-out: Compound (1) plasma AUC0-tlast, Median",11700 ng·h/mL
same,Cmax,"4.5 g/day, Cohort 9 (4.5 g/day in a single dose), Dosing Day 4, read-out: Compound (1) plasma Cmax, Mean",15600 ng/mL
same,Cmax,"4.5 g/day, Cohort 9 (4.5 g/day in a single dose), Dosing Day 4, read-out: Compound (1) plasma Cmax, Median",16800 ng/mL
same,half-life,"4.5 g/day, Cohort 9 (4.5 g/day in a single dose), Dosing Day 4, read-out: Compound (1) plasma T1/2, Mean (converted)",29.4 min
same,half-life,"4.5 g/day, Cohort 9 (4.5 g/day in a single dose), Dosing Day 4, read-out: Compound (1) plasma T1/2, Median (converted)",32.4 min
same,AUC(0-inf),"4.5 g/day, Cohort 9 (4.5 g/day in a single dose), Dosing Day 10, read-out: Compound (1) plasma AUC0-inf, Mean",10800 ng·h/mL
same,AUC(0-inf),"4.5 g/day, Cohort 9 (4.5 g/day in a single dose), Dosing Day 10, read-out: Compound (1) plasma AUC0-inf, Median",10200 ng·h/mL
same,AUC(0-t),"4.5 g/day, Cohort 9 (4.5 g/day in a single dose), Dosing Day 10, read-out: Compound (1) plasma AUC0-tlast, Mean",10700 ng·h/mL
same,AUC(0-t),"4.5 g/day, Cohort 9 (4.5 g/day in a single dose), Dosing Day 10, read-out: Compound (1) plasma AUC0-tlast, Median",10100 ng·h/mL
same,Cmax,"4.5 g/day, Cohort 9 (4.5 g/day in a single dose), Dosing Day 10, read-out: Compound (1) plasma Cmax, Mean",14800 ng/mL
same,Cmax,"4.5 g/day, Cohort 9 (4.5 g/day in a single dose), Dosing Day 10, read-out: Compound (1) plasma Cmax, Median",15900 ng/mL
same,half-life,"4.5 g/day, Cohort 9 (4.5 g/day in a single dose), Dosing Day 10, read-out: Compound (1) plasma T1/2, Mean (converted)",33.6 min
same,half-life,"4.5 g/day, Cohort 9 (4.5 g/day in a single dose), Dosing Day 10, read-out: Compound (1) plasma T1/2, Median (converted)",33.6 min
same,AUC(0-inf),"6 g/day, Cohort 8 (6.0 g/day divided into equal 2 doses), Dosing Day 4, read-out: Compound (1) plasma AUC0-inf, Mean",14500 ng·h/mL
same,AUC(0-inf),"6 g/day, Cohort 8 (6.0 g/day divided into equal 2 doses), Dosing Day 4, read-out: Compound (1) plasma AUC0-inf, Median",14800 ng·h/mL
same,AUC(0-t),"6 g/day, Cohort 8 (6.0 g/day divided into equal 2 doses), Dosing Day 4, read-out: Compound (1) plasma AUC0-tlast, Mean",14400 ng·h/mL
same,AUC(0-t),"6 g/day, Cohort 8 (6.0 g/day divided into equal 2 doses), Dosing Day 4, read-out: Compound (1) plasma AUC0-tlast, Median",14800 ng·h/mL
same,Cmax,"6 g/day, Cohort 8 (6.0 g/day divided into equal 2 doses), Dosing Day 4, read-out: Compound (1) plasma Cmax, Mean",12100 ng/mL
same,Cmax,"6 g/day, Cohort 8 (6.0 g/day divided into equal 2 doses), Dosing Day 4, read-out: Compound (1) plasma Cmax, Median",11500 ng/mL
same,half-life,"6 g/day, Cohort 8 (6.0 g/day divided into equal 2 doses), Dosing Day 4, read-out: Compound (1) plasma T1/2, Mean (converted)",31.8 min
same,half-life,"6 g/day, Cohort 8 (6.0 g/day divided into equal 2 doses), Dosing Day 4, read-out: Compound (1) plasma T1/2, Median (converted)",16.2 min
same,AUC(0-inf),"6 g/day, Cohort 8 (6.0 g/day divided into equal 2 doses), Dosing Day 10, read-out: Compound (1) plasma AUC0-inf, Mean",14900 ng·h/mL
same,AUC(0-inf),"6 g/day, Cohort 8 (6.0 g/day divided into equal 2 doses), Dosing Day 10, read-out: Compound (1) plasma AUC0-inf, Median",14100 ng·h/mL
same,AUC(0-t),"6 g/day, Cohort 8 (6.0 g/day divided into equal 2 doses), Dosing Day 10, read-out: Compound (1) plasma AUC0-tlast, Mean",14800 ng·h/mL
same,AUC(0-t),"6 g/day, Cohort 8 (6.0 g/day divided into equal 2 doses), Dosing Day 10, read-out: Compound (1) plasma AUC0-tlast, Median",14100 ng·h/mL
same,Cmax,"6 g/day, Cohort 8 (6.0 g/day divided into equal 2 doses), Dosing Day 10, read-out: Compound (1) plasma Cmax, Mean",11500 ng/mL
same,Cmax,"6 g/day, Cohort 8 (6.0 g/day divided into equal 2 doses), Dosing Day 10, read-out: Compound (1) plasma Cmax, Median",11300 ng/mL
same,half-life,"6 g/day, Cohort 8 (6.0 g/day divided into equal 2 doses), Dosing Day 10, read-out: Compound (1) plasma T1/2, Mean (converted)",20.4 min
same,half-life,"6 g/day, Cohort 8 (6.0 g/day divided into equal 2 doses), Dosing Day 10, read-out: Compound (1) plasma T1/2, Median (converted)",16.8 min
same,AUC(0-inf),"6 g/day, Cohort 10 (6.0 g/day in a single dose), Dosing Day 4, read-out: Compound (1) plasma AUC0-inf, Mean",17200 ng·h/mL
same,AUC(0-inf),"6 g/day, Cohort 10 (6.0 g/day in a single dose), Dosing Day 4, read-out: Compound (1) plasma AUC0-inf, Median",19000 ng·h/mL
same,AUC(0-t),"6 g/day, Cohort 10 (6.0 g/day in a single dose), Dosing Day 4, read-out: Compound (1) plasma AUC0-tlast, Mean",17100 ng·h/mL
same,AUC(0-t),"6 g/day, Cohort 10 (6.0 g/day in a single dose), Dosing Day 4, read-out: Compound (1) plasma AUC0-tlast, Median",18900 ng·h/mL
same,Cmax,"6 g/day, Cohort 10 (6.0 g/day in a single dose), Dosing Day 4, read-out: Compound (1) plasma Cmax, Mean",21300 ng/mL
same,Cmax,"6 g/day, Cohort 10 (6.0 g/day in a single dose), Dosing Day 4, read-out: Compound (1) plasma Cmax, Median",23500 ng/mL
same,half-life,"6 g/day, Cohort 10 (6.0 g/day in a single dose), Dosing Day 4, read-out: Compound (1) plasma T1/2, Mean (converted)",24.6 min
same,half-life,"6 g/day, Cohort 10 (6.0 g/day in a single dose), Dosing Day 4, read-out: Compound (1) plasma T1/2, Median (converted)",24 min
same,AUC(0-inf),"6 g/day, Cohort 10 (6.0 g/day in a single dose), Dosing Day 10, read-out: Compound (1) plasma AUC0-inf, Mean",16400 ng·h/mL
same,AUC(0-inf),"6 g/day, Cohort 10 (6.0 g/day in a single dose), Dosing Day 10, read-out: Compound (1) plasma AUC0-inf, Median",16900 ng·h/mL
same,AUC(0-t),"6 g/day, Cohort 10 (6.0 g/day in a single dose), Dosing Day 10, read-out: Compound (1) plasma AUC0-tlast, Mean",16300 ng·h/mL
same,AUC(0-t),"6 g/day, Cohort 10 (6.0 g/day in a single dose), Dosing Day 10, read-out: Compound (1) plasma AUC0-tlast, Median",16800 ng·h/mL
same,Cmax,"6 g/day, Cohort 10 (6.0 g/day in a single dose), Dosing Day 10, read-out: Compound (1) plasma Cmax, Mean",18900 ng/mL
same,Cmax,"6 g/day, Cohort 10 (6.0 g/day in a single dose), Dosing Day 10, read-out: Compound (1) plasma Cmax, Median",20000 ng/mL
same,half-life,"6 g/day, Cohort 10 (6.0 g/day in a single dose), Dosing Day 10, read-out: Compound (1) plasma T1/2, Mean (converted)",21.6 min
same,half-life,"6 g/day, Cohort 10 (6.0 g/day in a single dose), Dosing Day 10, read-out: Compound (1) plasma T1/2, Median (converted)",21 min
same,Tmax,"Cohort 8 (6.0 g/day divided into equal 2 doses), Dosing Day 4",30 min
same,Tmax,"Cohort 9 (4.5 g/day in a single dose), Dosing Day 4",30 min
